Data set [1] relates to factor XI deficient plasma. In words: tissue factor dependence of clotting in factor XI-deficient plasma. Particulars: CTI, factor XI 1 U/mL. Type of data set: biochemical, human. On the procedure:
FIG. 3 is explained as follows: clot time in factor XI deficient plasma (<1%) was measured as a function of tissue factor and […] (as described in Methods). The ordinate is shown in seconds (left-hand axis) and minutes (right-hand axis). Two curves are presented: one for factor XI deficient plasma without factor XI replacement (<1%, filled squares) and a second curve for the same plasma with 1 U/mL factor XI (25 nM, filled circles). To connect the data, smooth curves were drawn which meet near 24 pM TF. The curves become increasingly divergent as tissue factor concentration is reduced to 6 pM TF, where the difference is most pronounced.
Relipidated tissue factor reagent (see above) was rehydrated (200 μl) and diluted with HBS/calcium (2 mM) to obtain a stock reagent containing 552 pM TF and 1.10 μM PCPS. This initial stock was further diluted with PCPS (1. 10 μM) in HBS/calcium (2 mM) to obtain a set of working TF stock concentrations ranging from 17.25 to 552 pM TF at constant lipid concentration. The assay was performed according to the following protocol: Into a polystyrene tube (12×75 mm) was added 200 μL human plasma (XI-deficient, <1% XI:C; or XI-deficient with factor XI replaced at 3.5 μg/mL, 100 U/dL) and 10 μL corn trypsin inhibitor (1.15 mg/mL in HBS). […]

For the next data set, the system named is hemophilia C blood. Kind of data set: coagulation in hemophilia C (factor XI deficient) whole blood with factor XI replacement. Type of data set: cell-based, human. The following applies: for clot time: CTI 48 μg/mL. From the text:
Table 1 below reports the clot times for coagulation in factor XI-deficient blood, deficient blood with replacement and normal whole blood initiated at 25 and 5 pM TF with suppression of contact activation by corn trypsin inhibitor. […] Data are given for each of the experiments described in the text, along with phlebotomy control values i(in parentheses) for clotting in the absence of added tissue factor initiator. […] In all experiments, including controls, factor XIIa activity was suppressed by the addition of corn trypsin inhibitor at the level of 48 μg/mL of blood (see Methods for brief description of the experiments). For the experiments with 25 pM initiator, patient A was the donor; in the 5 pM experiments, the donor was patient B.
The protocol employed is a modification of Rand, M. D., et al. supra performed under the supervision of one of the authors (R. F. B.) at the Clinical Research Center, Fletcher Allen Health Care (Burlington, Vt.). Clotting in freshly drawn, non-anticoagulated whole blood was carried out in 32 capped polystyrene culture tubes as described, except that two series were performed per experiment (16 tubes/series). Reagents were loaded in the following amounts: corn trypsin inhibitor (all tubes, to give 50 μg/mL blood); relipidated TF (lipid:protein=2000) in HBS with 5 mM calcium (all tubes in each series except phlebotomy control tube, to give 25 or 5 pM TF/mL blood); factor VIII or factor XI (all tubes, replacement series only, to give 1 U/mL final); equivalent volume factor VIII/XI dilution buffer (HBS, pH 7.4, all tubes, deficiency series only). No more than 45 μL reagent were loaded in each tube. The zero tube of each series was pre-treated using 1 mL inhibitor cocktail (containing 50 mM EDTA and 20 mM benzamidine-HCl in HBS, pH 7.4), and 10 μL of 10 mM FPRck (diluted in 0.01 M HCl).
Patient or normal donor blood was drawn by venipuncture under a protocol approved by the Human Studies Committee at the University of Vermont, as described Rand, M. D., et al. supra. Clotting was initiated by delivery into the reagent-loaded tubes, and with periodic quenching of the tubes with inhibitor cocktail and FPRck as described above. Two series of quenched samples were obtained following reaction progress up to 20 minutes after initiation; both reducing (1% β-mercaptoethanol) and non-reducing SDS-PAGE samples were prepared from each tube (60 μL supernatant, 190 μL 2% SDS-PAGE sample solution Rand, M. D., et al. supra heated exactly 5 minutes at 98+/−2° C.). An aliquot from each tube was filtered to remove cellular contaminants for ostleonectin assays (200 μL, 0.2 μm AcroDisc, Gelman Sciences, Ann Arbor, Mich.). The remaining serum and cell pellets/clots were aliquotted to screw cap tubes, frozen and stored at −20° C. for immunoblot or immunoassay analysis.
Commercial ELISAs for fibrinopeptide A (FPA), thrombin-antithrombin-III (TAT) and platelet α-granule release (osteonectin) were performed according to manufacturers protocols, with corrections for sample dilution by added quench solution (1.00 mL) and hematocrit (typically 40% of the total blood volume). For analysis of factor Va, samples were separated on SDS-PAGE according to Laemmli, U.K. (1970) Nature 227: 680 as modified by our laboratory Rand, M. D., et al. (1996) supra. Separate gels were run for heavy chain and light chain analysis. Gels were loaded with a pre-stained molecular weight standard mixture (14-200 kDa) and dilute standards (3 samples) allowing comparison and quantitation of analyte amounts horizontally on the immunoblots. Transfer from the gel to nitrocellulose (BioRad, Hercules, Calif.) was performed for 1.5-3 hours via an SDS-free tank transfer procedure as described (Towbin H, et al. (1979) Proc Natl Acad Sci. (USA) 76: 4350 and Gallagher, S. et al. (1993) Current Protocols in Molecular Biology. J. Wiley and Sons. 10.8.1.) with subsequent immunoblot analysis according to Rand, M. D., et al.(1996) supra. […]

The subject of data set [2] is tissue factor initiated clotting of recalcified citrated plasma. Kind of data set: extended plasma prothrombin time (XpPT) assay. Particulars: for clot time of patient plasma: patients on Coumadin therapy, 0.5 nM TF, 100 μg/ml CTI; for XpPT clot time of patient plasma (s.e.m.): patients on moderate Coumadin therapy, 0.5 nM tissue factor. Type of data set: biochemical, human. The protocol: The result was a standard system of coagulation evaluation in which a plasma sample collected in 11 mM trisodium citrate was frozen (standard pathology laboratory collection system) defrosted in the presence of 100 μgm/ml corn trypsin inhibitor (final concentration) and the assay ultimately conducted described in Materials and Methods section below. The final concentrations in the tissue factor clotting sample included 100 μgm/ml CTI 30 mM CaCl2, 50 μM 75% PC:25PS vesicles and 0.5 nM tissue factor. This system is referred to as the XpPT assay.
To study the effects of heparin, 0-3 U/mL (10,000 u/mL stock) were titrated into normal, CTI (100 μg/mL), citrated plasma. Into reaction cuvettes, […] of plasma, 10 μL of 300 mM CaCl2 (final, 30 mM) and […] of 3.72 mM PCPS (final concentration, 50 μM) were added. Appropriate volumes of heparin (10,000 U/mL) were added to give 0.25, 0.5, 1.0, 1.5, 2.0, and 3.0 U/mL final concentration in 100 μL plasma. The reaction was initiated by adding 10 μL of 5 nM rTF (0.5 nM final concentration).
The assay was used along lines discussed previously except that TFPI was added (50 μg/mL stock) at 5.0, 10.0, 20.0, 60 nM final concentration and initiating with 10 μL of 5.0 nM rTF (0.5 nM).
Citrated platelet poor plasma (PPP) from a normal pool, patient cohorts, or factor V, VII, VIII and IX deficient pools was treated with 3.7 μL of 2.72 mg/mL (100 μg/mL final concentration) corn trypsin inhibitor (CTI) prior to thawing at 37° C. The thawed plasma was spun at 16,000×g (Eppendorf model 5415-C bench top centrifuge) for 10 minutes. Clot times were done by either a manual, tilt-tube method or using a Stago ST-4 detector. (Results were equivalent with each method.) For both methods test tubes made of clear polystyrene or similar clear plastic were used.
Reaction cuvettes for the ST4 clot detector were equilibrated to 37° C. (3 minutes) in the appropriate incubation chambers. Calcium equilibration was started by adding 10 μL of 300 mM CaCl2 (final, 30 mM) to 100 μL of the CTI treated citrated PPP (normal, patient or deficient) for 15 seconds followed by 1.3 μL of 3.72 mM PCPS (25:75 PC/PS) (final concentration, 50 μM) 15 seconds. The reaction was initiated by adding 10 μL of 5.0 nM rTF (final 0.5 nM TF) or 2.5 μL of 0.5 nM rTF (12.5 pM final). End point clot times were determined visually or mechanically on the ST4 using the PTT mode, no incubation, with an upper end timing limit of 999 seconds.

Data set [3] deals with tissue factor initiated clotting of platelet poor plasma. Kind of data set: plasma clotting assay using CTI (Example 3). Type of data set: biochemical, human. Particulars: patients on stabilized coumadin therapy. The protocol: Blood was drawn directly into sterile buffered 3.8% sodium citrate tubes (Vacutainer brand, product # L10318-00, Becton-Dickinson and Co.), and the tubes were centrifuged at 4227 RCF for 3 minutes (Baxter Stat 60 bench top centrifuge). The supernatant was decanted and an automated PT was established for each patient sample. Platelet poor samples were isolated by further centrifugation for 10 minutes at 14,000 rpm, and the top two-thirds of the plasma was transferred to a Sarstedt rectic cup where it was stored for subsequent analysis at −80° C. Prior to thawing, CTI (stock concentration 1-5 mg/mL) was layered onto the frozen sample in an amount sufficient to give a final concentration of 100 μg CTI/mL plasma. Such citrated plasma containing CTI was used within 0-2 hours (stored at 2-8° C.).
Platelet poor plasma collected as described in Example 1 or 2 from either patients or normal donors, was delivered (100 μL) into a 12×75 mm disposable polystryrene tube (VWR Scientific, product #60818-361). Calcium chloride (10 μL, 300 mM CaCl2) was added, followed immediately by an amount of concentrated PSPC (prepared as described above, typical stock concentration ˜1-5 mM in HBS, pH 7.4) so that the final concentration of lipid in the mixture was […]. To initiate the reaction at zero time, 20 μL of stock tissue factor reagent (described below) was added to a final TF concentration of 1 nM. […]

[4] abbreviates: factor XI replacement, 25 pM TF.

As for “factor XI: human factor XI used for replacement at 1 U/mL”, the “difference in clot time without versus with factor XI” value in data set [1] (6 pM TF) was determined as 5.7 min. Also, the “difference in clot time without versus with factor XI” value in data set [1] (24 pM TF) was determined as 0.467 min. Moreover, the clot time in the data set on hemophilia C blood (XI-deficient blood (patient A) with factor XI replacement 1 U/mL, 25 pmol/L TF) worked out at 3.7 min. Besides, the “phlebotomy control clot time, −TF” value with hemophilia C blood (XI-deficient blood (patient A) with factor XI replacement, CTI, no TF) is given as “(control, −TF > 20.3 min.)”. Also, the clot time with hemophilia C blood (XI-deficient blood (patient B) with factor XI replacement 1 U/mL, 5 pmol/L TF) is 9.7 min. For the same compound, the “clotting time with factor XI and corn trypsin inhibitor in the absence of TF” value with hemophilia C blood (factor XI deficient blood) was above 20 min. In addition, in the data set on hemophilia C blood (factor XI replacement, 5 pM TF), the FPA formation rate turned out to be 7.4 µM/min, the “TAT rate at clot time” value is reported as 119 nM/min, the “final level of TAT” value is 600 nM and the “osteonectin release by clot time” value was 67%. Also, in the data set with hemophilia C blood (factor XI replacement, 5 pM TF), the thrombin generation rate worked out at 119 nmol TAT/L/min, the “time after clot time to complete fibrinogen conversion” value is 2 to 2.5 min and the “time of maximum factor Va heavy chain” value is around 12 min. In the data set on hemophilia C blood (setting [4]), the “final TAT concentration” value is listed as 950 nM, the “maximum rate of FPA release” value stood at 7.3 µM/min, the “rate of thrombin generation” value was 85 nmol·L/min and the thrombin generation rate came out at 85 nmol TAT/L/min. Also, the “shortening of clot time by factor XI replacement” value with hemophilia C blood (hemophilia C blood, 5 pM TF) amounted to 6 min.

Take `CC(=O)CC(c1ccccc1)c1c(O)c2ccccc2oc1=O` (stereo not drawn) [Coumadin]: the “clot time of patient plasma” value in data set [2] (INR of 2, normal 82±6s) was 211 ± 8 s; in data set [2] (INR of 4.3), 616 ± 9 s; in data set [3] (INR of 2.0, normal (INR 1) 60-75 seconds), 215 to 240 s; in data set [3] (INR of 5.0), 700 to 800 s. Besides, the “XpPT clot time of patient plasma (s.e.m.)” value was 212.6 ± 2.2 s in data set [2] (INR of 2.0, normal 82.5±0.63 seconds) and 610.8 ± 4.2 s in data set [2] (INR of 4.3).

These data come from patent US6566140B2, “Inhibition of coagulation in blood and blood products” (University of Vermont and State Agriculture College, priority 1998, dated 2003).
